The test system of series [1] is human adenocarcinoma cell line HT-29 (colorectal cancer). As to the kind of experiment: MTT cell viability assay, HT-29. In kind it is cell-based. The note with it: 24 h treatment. On the procedure: (§1) A549, PC3, MCF-7, HT-29, WRL68 and MCF-7 cells were obtained from the ATTC (Rockville, MD, USA) and grown in RPMI-1640 medium, 10% fetal bovine serum (FBS) and 1% pen-strep, in humidified conditions at 5% CO2 and 37 °C. The different cell lines mentioned above were used to determine the inhibitory effects of compounds on cell growth using the MTT assay. This colorimetric assay is based on the conversion of the yellow tetrazolium bromide (MTT) to a purple formazan derivative by mitochondrial succinate dehydrogenase in viable cells. Cells were seeded in 96-well plate and incubated for 24 h at 37 °C with 5% CO2 saturation. After incubation, the cells were treated with different concentration of compounds and incubated for another 24 h. After 24 h of drug treatment, 20 µL of MTT solution at 5 mg/mL was added and incubated for 4 h. Dimethyl sulfoxide (DMSO) in volume of 100 µL is added into each well to dissolve the purple formazan formed. The colorimetric assay is measured and recorded at absorbance of 570 nm.
In general terms: Tetrazolium dyes change colour on reduction, which living cells bring about.

For series [2], the system named is human normal liver cell line WRL-68. As to the kind of experiment: MTT cell viability assay, WRL68. In kind it is cell-based. The conditions noted are these: 24 h treatment. As for the experimental part:
as §1

The subject of series [3] is MCF-7 cells. As to the kind of experiment: Multiparametric high content screening (HCS) cytotoxicity/apoptosis assay. In kind it is cell-based, human.
Description: The toxic effects of Cpd 1, 5, 23 and 25 at different doses on MCF-7 cells were assayed using the high content screening (HCS) KineticScan Reader (Cellomics Inc, Pittsburgh, PA, USA) with the Multiparameter Cytotoxicity Kit 3. The kit contains four fluorescent dyes, i.e., blue fluorescent Hoechst 33342, membrane permeability, mitochondrial membrane potential, and cytochrome c dyes. They respectively detect changes in nuclear morphology (nuclear condensation), membrane permeability, mitochondrial membrane potential and expression of cytochrome c. The multiparametric apoptosis kit quantifies three fundamental parameters related to the process of apoptosis, i.e., nuclear condensation detected by the blue fluorescent nuclear dye, Hoechst 33342, cell permeability detected by permeability dye, mitochondrial damage detected by mitochondrial membrane potential dye and cytochrome c release by DyLight 649 Conjugates. Following treatment with different concentrations of compounds 1, 23, 25 and 5 as mentioned before, the fixation and staining for imaging analysis of the MCF-7 cells were performed according to the manufacturer’s instructions. […] Plates were analyzed using a Thermo Scientific ArrayScanHVTI HCS Reader (Cellomics Inc, Pittsburgh, PA, USA). This is a computerized automated fluorescence imaging microscope that automatically identifies stained cells and measures the intensity and distribution of fluorescence in individual cells. Images for each fluoroprobe were acquired at different channels using suitable filters with 20x objective at fixed exposure time. The Cell Health Profiling BioApplication software was used for image acquisitions and analysis. For each well, at least 25 fields, corresponding to at least 500 cells were automatically acquired and analyzed. All experiments were performed in triplicates. Cell average intensity (Mean) under the modified object mask within selected range in each channel was used as assay indicator, and reported as average fluorescence intensity.
Series [4] has as its system MCF-7 (breast), A549 (lung), PC3 (prostate), HT-29 (colorectal) and WRL68 (liver). As to the kind of experiment: MTT assay, summary over all five cell lines. Format: cell-based, human. On the procedure:
as §1

Series [5] concerns ROS in MCF-7 cells. As to the kind of experiment: Intracellular ROS level (DCFDA). In kind it is cell-based, human. The conditions noted are these: MCF-7, 24 h, high concentration (6 µg/mL; 25: 4 µg/mL), vs untreated control, p < 0.05. As for the experimental part:
Due to the observation of significant cytotoxicity of selected compounds towards MCF-7 cells, the following analyses were done on them only. Cells were treated with compound 1 (1A- 3 µg/mL; 1B- 6 µg/mL), 23 (23A- 3 µg/mL; 23B- 6 µg/mL), 25 (25A- 2 µg/mL; 25B- 4 µg/mL) and 5 (5A- 3 µg/mL; 5B- 6 µg/mL).
The production of ROS was estimated by fluorescence using the redox-sensitive fluorescent probe DCFDA (Sigma). The oxidation of DCFDA by ROS converts the molecule to 2′,7′-dichlorodihydrofluorescein (DCF), which is highly fluorescent. Thus, ROS production by stimulated cells causes an increase in the fluorescence signal over time. ROS assays were performed as previously described (13). Briefly, the MCF-7 cells were seeded in 96-well plates (5 × 10^4 cells/well) and allowed to attach for 24 h. After 24 h treatment with compounds 1, 23, 25 and 5 as mentioned before, the cells were washed three times with PBS and incubated for 60 min with […] DCFDA at room temperature. Again the wells were washed with PBS. Fresh PBS was added (100 μL/well) and DCF fluorescence was detected using a Tecan Infinite M200 fluorescence microplate reader at excitation and emission wavelengths of 485 and 528 nm, respectively. The fluorescence intensity unit of treatments was compared with control.

In series [6] the test system is human prostate cancer cell line PC3. The series can be described thus: MTT cell viability assay, PC3. Format: cell-based. The note with it: 24 h treatment. On the procedure:
as §1

Series [7] relates to human lung adenocarcinoma cell line A549. The series can be described thus: MTT cell viability assay, A549. In kind it is cell-based. The conditions noted are these: 24 h treatment. As for the experimental part:
as §1

Series [8] deals with human breast adenocarcinoma cell line MCF-7. The series can be described thus: MTT cell viability assay, MCF-7. In kind it is cell-based. The conditions noted are these: MCF7, 24 h treatment. As for the experimental part: as §1
The mark [9] stands for this setting: MCF-7, compounds 2-6 µg/mL, tamoxifen 0.04 µg/mL, vs control.

Each structure is given as a SMILES string. ≈ marks a conversion by molar mass, not a printed value.

As for `O=C(/C=C/c1ccccc1Cl)c1ccccc1` [Compound 5, 3-(2-Chlorophenyl)-1-phenylpropenone], the melting point was in the range of 53 to 54 °C. The IC50 in series [1] was 13.2 ± 1.2 µg/mL (≈ 54.6 µM). Moreover, half-maximal inhibition in series [2] (IC50) was put at 11.5 ± 1.1 µg/mL (≈ 47.2 µM). Besides, in series [3] (setting [9]), the “cell (membrane) permeability” value was “increased cell permeability”, the cytochrome c release result is given as “cytochrome c release from mitochondria”, the mitochondrial membrane potential result is reported as “loss of mitochondrial membrane potential” and the “total nuclear intensity (Hoechst 33342 nuclear chromatin staining)” value is “increased total nuclear intensity”. Also, the cell loss entry in series [3] (MCF-7, compounds 2-6 µg/mL, data not shown) was “statistically significant cell loss”. Also, the “apoptosis in MCF-7 cells” value in series [3] (shown by multiparameter cytotoxicity assay and caspase-3/7, -8, -9 activities, p < 0.05) is “capable in eliciting apoptosis”. For the same compound, the “cytotoxic effect in words” value in [4] is recorded as “high cytotoxicity”. In addition, the IC50 in series [4] (Homo sapiens, all five cell lines, MTT, read-out: IC50 in all cell lines) is under 20 µg/mL. In addition, the “ROS increase at high concentration” value in [5] was 2.7 fold. Moreover, the IC50 in [6] turned out to be 13.8 ± 1.2 µg/mL (≈ 57 µM). In [7], this compound displayed an IC50 of 19.9 ± 1.66 µg/mL (≈ 82.2 µM). The compound also returned an IC50 in series [8] of 7.99 ± 0.81 µg/mL (≈ 32.9 µM).

One may read the IC50 as the concentration at which inhibition is half-maximal. As a reminder, the melting point is the temperature, or range, at which the solid turns liquid.

The values above are taken from paper PMC6268294, “Synthesis of Chalcones with Anticancer Activities” (Molecules, 2012).
